Assay results taken from ChEMBL document CHEMBL1132131, “Dopamine-selective response in membrane potential by homooxacalix[3]arene triether host incorporated in PVC liquid membrane” (Bioorg Med Chem Lett, 1999).

Key:
[1] = Selectivity of guest-induced changes in membrane potential at pH 5.0 for PVC matrix liquid membrane without any host; assay type: ADME
[2] = Selectivity of guest-induced changes in membrane potential at pH 5.0 for PVC matrix liquid membranes incorporated with o-Tolyloxy-acetic acid decyl ester polymer; assay type: ADME
[3] = Selectivity of guest-induced changes in membrane potential at pH 5.0 for PVC matrix liquid membranes incorporated with o-Tolyloxy-acetic acid ethyl ester polymer; assay type: ADME
[4] = Selectivity of guest-induced changes in membrane potential at pH 5.0 for PVC matrix liquid membranes incorporated with (2-Butoxy-5-tert-butyl-3-methyl-phenyl)-methanol polymer; assay type: ADME
[5] = Selectivity of guest-induced changes in membrane potential at pH 5.0 for PVC matrix liquid membranes incorporated with 6,7,9,10,17,18,20,21-Octahydro-5,8,11,16,19,22-hexaoxa-dibenzo[a,j]cyclooctadecene; assay type: ADME
[6] = Partition coefficient (logP); assay type: physicochemical; conditions: octanol/water
[7] = Selectivity of guest-induced changes in membrane potential(Kpot A,B) at pH 5.0 for PVC matrix liquid membranes incorporated with 6,7,9,10,17,18,20,21-Octahydro-5,8,11,16,19,22-hexaoxa-dibenzo[a,j]cyclooctadecene; assay type: ADME

SMILES | Kpot A,B [1] | Kpot A,B [2] | Kpot A,B [3] | Kpot A,B [4] | Kpot A,B [5] | logP [6] | Kpot A,B [7]
CCCCCCCCN | 1.68 | 2.58 | 3.52 | 2.01 | 19 | 2.93 | 
NC12CC3CC(CC(C3)C1)C2 [AMANTADINE] | 1.2 | < 0.01 | < 0.01 | 1.85 | 14.8 | 1.77 | 
NCc1ccccc1 [BENZYLAMINE] | 0.78 | 0.15 | 0.15 | 0.45 |  |  | 0.9
NCCc1ccc(O)c(O)c1 [DOPAMINE] | 1 | 1 | 1 | 1 |  | 0.82 | 
CNC[C@H](O)c1ccc(O)c(O)c1 [EPINEPHRINE] | 0.65 | 0.089 | 0.09 | < 0.01 |  | 0.59 | 
NC[C@H](O)c1ccc(O)c(O)c1 [NOREPINEPHRINE] |  |  |  |  |  | 0.82 | 
NCCc1ccccc1 [PHENETHYLAMINE] | 1 | 1 | 1 | 1 | 1 | 1.58 | 
CC(C)(C)N [TERT-BUTYLAMINE] | 0.56 | < 0.01 | < 0.01 | 0.31 | 0.4 | 0.72 | 
